According to patent US4705777A, “Cationic oligopeptides having microbicidal activity” (priority 1985, dated 1987):

Assays:
VSV = type: cell-based, Vesicular stomatitis virus; details: 10 IU/ml, human GM 2504 fibroblast cell line
HSV-1 = experiment: Virus yield reduction, HSV-1; type: cell-based, Herpes simplex, Type 1; details: 100 IU/ml, human GM 2504 fibroblast cell line
[1] = tested on: Cryptococcus neoformans C-384 (Type C); experiment: Antifungal assay of human neutrophil peptides; type: cell-based; details: comparison to Table VI
E. coli ML-35 = experiment: Bactericidal activity of human neutrophil peptides, E. coli ML-35; type: cell-based; details: comparison to Table VI
[2] = tested on: Staphylococcus aureus 502A; experiment: Bactericidal activity of human neutrophil peptides, S. aureus; type: cell-based; details: comparison to Table VI
L. monocytogenes = experiment: Antibacterial action, % killing (Table II), L. monocytogenes; type: cell-based, Listeria monocytogenes; details: 50 μg/ml peptide, 10^7 bacterial cells/ml, 20 min, 37°
Procedure: (§1) To test antibacterial action of the polypeptides, the following protocol was employed. Various species at 10^7 bacterial cells/ml are incubated for 20 min at 37° with 50 μg/ml of the candidate peptide. Colony counts (viable organisms) are made at the outset of the incubation--beforeaddition of the candidate peptide--and after 20 min of incubation with the candidate peptide.

[3] = tested on: Streptococcus pneumoniae Type III; experiment: Antibacterial activity of rabbit granulocyte peptides (Table III), S. pneumoniae; type: cell-based; details: 50 μg/ml, 20 min, 37° C., 10 mM sodium phosphate buffer pH 7.4
Procedure: (§2) The procedure parallels that reported in Lehrer et al., Infection and Immunity (1983) 42:10-14. […] The subculture was grown at 37° C. for 4 h with shaking to provide mid-logarithmic phase organisms that were washed twice with buffer by centrifugation (2000×g, 10 min), and then quantitated spectrophotometrically at 620 nm, with reference to previously established CFU/Optical Density relationships. Bacteria were suspended and experiments were performed in 10 mM sodium phosphate buffer, pH 7.4. In some experiments, buffers were supplemented with 0.14 M NaCl ("high" ionic strength). […] In some experiments, 10 mM phosphate buffer with a pH of 5.8 and conductivity of 1.36 mMHO was used. Peptide "stock solutions" were prepared at 500 μg/ml (microbiuret assay) in 0.01% acetic acid, and stored at -20° C. Typically, incubation mixtures contained 1×10^5 bacterial CFU and 5 μg of peptide in 100 μl of buffer. After incubation for 20 min at 37° C., 900 μl of the same buffer was added, and two additional serial tenfold dilutions were made with that buffer. Duplicate 100 μl aliquots from the three serial dilutions were spread over appropriate nutrient agar plates and incubated for 24-72 h to insure full colony development. Killing of microorganisms was expressed as the logarithm10 No /N, where No represented the initial colony count and N represented the colony count after incubation with peptide. There was no significant alteration in colony count when any of the test organisms were exposed to peptide-free buffer for 20 min.

[4] = tested on: Streptococcus agalactiae Type IIIU; experiment: Antibacterial activity of rabbit granulocyte peptides (Table III), S. agalactiae Type IIIU; type: cell-based; details: 50 μg/ml, 20 min, 37° C., 10 mM sodium phosphate buffer pH 7.4
Procedure: as §2

Serratia marcescens = experiment: Antibacterial activity of rabbit granulocyte peptides (Table III), S. marcescens; type: cell-based; details: 50 μg/ml, 20 min, 37° C., 10 mM sodium phosphate buffer pH 7.4
Procedure: as §2

[5] = tested on: Staphylococcus epidermidis UCLA-622; experiment: Antibacterial activity of rabbit granulocyte peptides (Table III), S. epidermidis; type: cell-based; details: 50 μg/ml, 20 min, 37° C., 10 mM sodium phosphate buffer pH 7.4
Procedure: as §2

[6] = tested on: Staphylococcus aureus J.F.; experiment: Antibacterial activity of rabbit granulocyte peptides (Table III), S. aureus J.F.; type: cell-based; details: 50 μg/ml, 20 min, 37° C., 10 mM sodium phosphate buffer pH 7.4
Procedure: as §2

[7] = tested on: Listeria monocytogenes 450; experiment: Antibacterial activity of rabbit granulocyte peptides (Table III), L. monocytogenes; type: cell-based; details: 50 μg/ml, 20 min; for Bactericidal activity log10 No /N, Listeria monocytogenes 450, pH 5.8: 10 mM phosphate buffer pH 5.8; for Bactericidal activity log10 No /N, Listeria monocytogenes 450: 37° C., 10 mM sodium phosphate buffer pH 7.4; for Bactericidal activity log10 No /N, Listeria monocytogenes 450, "High" ionic strength: buffer pH 7.4 supplemented with 0.14 M NaCl
Procedure: as §2

[8] = tested on: Hemophilus influenzae Type 3A; experiment: Antibacterial activity of rabbit granulocyte peptides (Table III), H. influenzae; type: cell-based; details: 50 μg/ml, 20 min, 37° C., 10 mM sodium phosphate buffer pH 7.4
Procedure: as §2

[9] = tested on: Bordetella bronchiseptica UCLA-342; experiment: Antibacterial activity of rabbit granulocyte peptides (Table III), B. bronchiseptica; type: cell-based; details: 50 μg/ml, 20 min, 37° C., 10 mM sodium phosphate buffer pH 7.4
Procedure: as §2

[10] = tested on: Staphylococcus aureus 502A; experiment: Antibacterial activity of rabbit granulocyte peptides (Table III), S. aureus 502A; type: cell-based; details: 50 μg/ml, 20 min, 37° C., 10 mM sodium phosphate buffer pH 7.4
Procedure: as §2

S. aureus 502A = experiment: Antibacterial action, % killing (Table II), S. aureus 502A; type: cell-based, Staphylococcus aureus; details: 50 μg/ml peptide, 10^7 bacterial cells/ml, 20 min, 37°
Procedure: as §1

Ps. aeruginosa = experiment: Antibacterial action, % killing (Table II), Ps. aeruginosa; type: cell-based, Pseudomonas aeruginosa; details: 50 μg/ml peptide, 10^7 bacterial cells/ml, 20 min, 37°
Procedure: as §1

S. marscescens = experiment: Antibacterial action, % killing (Table II), S. marscescens; type: cell-based, Serratia marscescens; details: 50 μg/ml peptide, 10^7 bacterial cells/ml, 20 min, 37°
Procedure: as §1

[11] = tested on: Streptococcus agalactiae Type-I-A; experiment: Antibacterial activity of rabbit granulocyte peptides (Table III), S. agalactiae Type-I-A; type: cell-based; details: 50 μg/ml, 20 min; for Bactericidal activity log10 No /N, Streptococcus agalactiae Type 1A, pH 5.8: 10 mM phosphate buffer pH 5.8; for Bactericidal activity log10 No /N, Streptococcus agalactiae Type-I-A: 37° C., 10 mM sodium phosphate buffer pH 7.4; for Bactericidal activity log10 No /N, Streptococcus agalactiae Type 1A, "High" ionic strength: buffer pH 7.4 supplemented with 0.14 M NaCl
Procedure: as §2

E. coli = experiment: Antibacterial action, % killing (Table II), E. coli; type: cell-based, Escherichia coli; details: 50 μg/ml peptide, 10^7 bacterial cells/ml, 20 min, 37°
Procedure: as §1

[12] = tested on: Escherichia coli ATCC 29648; experiment: Antibacterial activity of rabbit granulocyte peptides (Table III), E. coli; type: cell-based; details: 50 μg/ml, 20 min, 37° C., 10 mM sodium phosphate buffer pH 7.4
Procedure: as §2

[13] = tested on: Pseudomonas aeruginosa PAO 579; experiment: Antibacterial activity of rabbit granulocyte peptides (Table III), P. aeruginosa; type: cell-based; details: 50 μg/ml, 20 min; for Bactericidal activity log10 No /N, Pseudomonas aeruginosa PAO 579, pH 5.8: 10 mM phosphate buffer pH 5.8; for Bactericidal activity log10 No /N, Pseudomonas aeruginosa PAO 579: 37° C., 10 mM sodium phosphate buffer pH 7.4; for Bactericidal activity log10 No /N, Pseudomonas aeruginosa PAO 579, "High" ionic strength: buffer pH 7.4 supplemented with 0.14 M NaCl
Procedure: as §2

[14] = tested on: Staphylococcus aureus 566; experiment: Antibacterial activity of rabbit granulocyte peptides (Table III), S. aureus 566; type: cell-based; details: 50 μg/ml, 20 min, 37° C., 10 mM sodium phosphate buffer pH 7.4
Procedure: as §2

S. albus = experiment: Antibacterial action, % killing (Table II), S. albus; type: cell-based, Staphylococcus albus; details: 50 μg/ml peptide, 10^7 bacterial cells/ml, 20 min, 37°
Procedure: as §1

[15] = tested on: Klebsiella pneumoniae ATCC 13883; experiment: Antibacterial activity of rabbit granulocyte peptides (Table III), K. pneumoniae; type: cell-based; details: 50 μg/ml, 20 min; for Bactericidal activity log10 No /N, Klebsiella pneumoniae ATCC 13883, pH 5.8: 10 mM phosphate buffer pH 5.8; for Bactericidal activity log10 No /N, Klebsiella pneumoniae ATCC 13883: 37° C., 10 mM sodium phosphate buffer pH 7.4; for Bactericidal activity log10 No /N, Klebsiella pneumoniae ATCC 13883, "High" ionic strength: buffer pH 7.4 supplemented with 0.14 M NaCl
Procedure: as §2

H. influenzae = experiment: Antibacterial action, % killing (Table II), H. influenzae; type: cell-based, Haemophilus influenzae; details: 50 μg/ml peptide, 10^7 bacterial cells/ml, 20 min, 37°
Procedure: as §1

K. pneumoniae = experiment: Antibacterial action, % killing (Table II), K. pneumoniae; type: cell-based, Klebsiella pneumoniae; details: 50 μg/ml peptide, 10^7 bacterial cells/ml, 20 min, 37°
Procedure: as §1

Row | Substance | % Killing, L. monocytogenes (L. monocytogenes) | Bactericidal activity log10 No /N, Streptococcus pneumoniae Type III [3] [log10] | Bactericidal activity log10 No /N, Streptococcus agalactiae Type IIIU [4] [log10] | Bactericidal activity log10 No /N, Serratia marcescens (Serratia marcescens) [log10] | Bactericidal activity log10 No /N, Staphylococcus epidermidis UCLA-622 [5] [log10] | Bactericidal activity log10 No /N, Staphylococcus aureus J.F. [6] [log10] | Bactericidal activity log10 No /N, Listeria monocytogenes 450, pH 5.8 [7] [log10] | Bactericidal activity log10 No /N, Listeria monocytogenes 450 [7] [log10] | Bactericidal activity log10 No /N, Listeria monocytogenes 450, "High" ionic strength [7] [log10] | Bactericidal activity log10 No /N, Hemophilus influenzae Type 3A [8] [log10] | Bactericidal activity log10 No /N, Bordetella bronchiseptica UCLA-342 [9] [log10] | Bactericidal activity log10 No /N, Staphylococcus aureus 502A [10] [log10] | % Killing, S. aureus 502A (S. aureus 502A) | % Killing, Ps. aeruginosa (Ps. aeruginosa) | % Killing, S. marscescens (S. marscescens) | Bactericidal activity log10 No /N, Streptococcus agalactiae Type 1A, pH 5.8 [11] [log10] | Bactericidal activity log10 No /N, Streptococcus agalactiae Type-I-A [11] [log10] | Bactericidal activity log10 No /N, Streptococcus agalactiae Type 1A, "High" ionic strength [11] [log10] | % Killing, E. coli (E. coli) | Bactericidal activity log10 No /N, Escherichia coli ATCC 29648 [12] [log10] | further results
1 | IFN-α [reference compound] | – | – | – | – | – | – | – | – | – | – | – | – | – | – | – | – | – | – | – | – | decrease in VSV yield (VSV): 6 log10; decrease in HSV-1 yield (HSV-1): 0.6 log10
2 | asp cys tyr cys arg ile pro ala cys ile ala gly glu arg arg tyr gly thr cys ile tyr gln gly arg leu trp ala phe cys cys [HNP-3] | – | – | – | – | – | – | – | – | – | – | – | – | – | – | – | – | – | – | – | – | microbicidal activity compared with the other HNP, C. neoformans C-384 [1]: less microbicidal than the other oligopeptides; microbicidal activity compared with the other HNP, E. coli ML-35 (E. coli ML-35): less microbicidal than the other oligopeptides; microbicidal activity compared with the other HNP, S. aureus 502A [2]: less microbicidal than the other oligopeptides
3 | gly arg cys val cys arg lys gln 21eu cys ser tyr arg glu arg arg ile gly asp cys lys ile arg gly val arg phe pro phe cys cys pro arg [NP-3b] | B (90-99% killing) | > 3.5 | 1.2 | 0.7 | 1.7 | 0.8 | 0.0 | 4.3 | 0.0 | 0.7 | 0.1 | 0.3 | D (<50% killing) | A (>99% killing) | B (90-99% killing) | 0.2 | 0.9 | 0.0 | C (50-90% killing) | 1.4 | Bactericidal activity log10 No /N, Pseudomonas aeruginosa PAO 579, pH 5.8 [13]: 0.0 log10; Bactericidal activity log10 No /N, Pseudomonas aeruginosa PAO 579 [13]: 4.2 log10; Bactericidal activity log10 No /N, Pseudomonas aeruginosa PAO 579, "High" ionic strength [13]: 0.0 log10; Bactericidal activity log10 No /N, Staphylococcus aureus 566 [14]: 1.7 log10; % Killing, S. albus (S. albus): D (<50% killing); Bactericidal activity log10 No /N, Klebsiella pneumoniae ATCC 13883, pH 5.8 [15]: 0.2 log10; Bactericidal activity log10 No /N, Klebsiella pneumoniae ATCC 13883 [15]: 3.4 log10; Bactericidal activity log10 No /N, Klebsiella pneumoniae ATCC 13883, "High" ionic strength [15]: 0.0 log10
4 | gly ile cys ala cys arg arg arg phe cys pro asn ser glu arg phe ser gly tyr cys arg val asn gly ala arg tyr val arg cys cys ser arg arg [NP-3a] | D (<50% killing) | > 3.5 | 0.3 | 0.5 | 1.3 | 0.4 | 0.0 | 0.2 | 0.1 | > 1.1 | 0.1 | 0.0 | D (<50% killing) | A (>99% killing) | C (50-90% killing) | 0.0 | 0.6 | 0.0 | D (<50% killing) | 0.6 | Bactericidal activity log10 No /N, Pseudomonas aeruginosa PAO 579, pH 5.8 [13]: 0.1 log10; Bactericidal activity log10 No /N, Pseudomonas aeruginosa PAO 579 [13]: 3.2 log10; Bactericidal activity log10 No /N, Pseudomonas aeruginosa PAO 579, "High" ionic strength [13]: 0.1 log10; Bactericidal activity log10 No /N, Staphylococcus aureus 566 [14]: 1.3 log10; % Killing, H. influenzae (H. influenzae): B (90-99% killing); % Killing, S. albus (S. albus): D (<50% killing); Bactericidal activity log10 No /N, Klebsiella pneumoniae ATCC 13883, pH 5.8 [15]: 0.4 log10; Bactericidal activity log10 No /N, Klebsiella pneumoniae ATCC 13883 [15]: 2.4 log10; Bactericidal activity log10 No /N, Klebsiella pneumoniae ATCC 13883, "High" ionic strength [15]: 0.0 log10; % Killing, K. pneumoniae (K. pneumoniae): A (>99% killing)
